Assays:
[1] = test system: Human fibroblasts; experiment: Effect on biosynthesis of collagen (procollagen type (I) ELISA); type: cell-based; settings: 10^-4 M, 24 hours, relative to untreated control group = 100
Protocol: The effect of the hydroxy pyranone derivatives obtained in Examples 1˜6 on biosynthesis of collagen was compared with those of retinol and retinoic acid.
Human fibroblasts were seeded into a 24-well plate to a density of 10^5 cells/well and then cultured to 90% of growth. The plate was washed with PBS (phosphate buffered saline) and treated with test samples at a concentration of 10^−4M, and then incubated in a CO2 incubator for 24 hours. From its supernatant, procollagen production was measured with procollagen type (I) ELISA kit. The biosynthesis of collagen was evaluated as a relative value compared with that of the control group, which is not treated with sample and of which the value of biosyntheis of collagen was set to be 100.

[2] = test system: healthy females and males; experiment: Human patch test; type: in vivo; settings: 1% in patch base; for Average Response (n = 30): calculated by equation 4, below 1 = no irritation; for Number of the subjected showing response, 24 hours later, − (No visible response) / Number of the subjected showing response, 24 hours later, ± (Mild erythema) / Number of the subjected showing response, 24 hours later, + (Intense erythema) / Number of the subjected showing response, 24 hours later, + + (Intense erythema with edema) / Number of the subjected showing response, 24 hours later, + + + (Intense erythema with edema and vesicle): n = 30, 24 hours later; for Number of the subjected showing response, 24 hours later, − (No visible response) / Number of the subjected showing response, 48 hours later, − (No visible response): grade 0; for Number of the subjected showing response, 24 hours later, ± (Mild erythema) / Number of the subjected showing response, 48 hours later, ± (Mild erythema): grade 1; for Number of the subjected showing response, 24 hours later, + (Intense erythema) / Number of the subjected showing response, 48 hours later, + (Intense erythema): grade 2; for Number of the subjected showing response, 24 hours later, + + (Intense erythema with edema) / Number of the subjected showing response, 48 hours later, + + (Intense erythema with edema): grade 3; for Number of the subjected showing response, 24 hours later, + + + (Intense erythema with edema and vesicle) / Number of the subjected showing response, 48 hours later, + + + (Intense erythema with edema and vesicle): grade 4; for Number of the subjected showing response, 48 hours later, − (No visible response) / Number of the subjected showing response, 48 hours later, ± (Mild erythema) / Number of the subjected showing response, 48 hours later, + (Intense erythema) / Number of the subjected showing response, 48 hours later, + + (Intense erythema with edema) / Number of the subjected showing response, 48 hours later, + + + (Intense erythema with edema and vesicle): n = 30, 48 hours later
Protocol: This test was performed for thirty (30) healthy females and males aged on average 24.8 years and having no experience of hypersensitivity, according to method of CTFA Guideline (The Cosmetic, Toiletry and Fragrance Association. Inc. Washington, D.C., 20023, 1991). Each compound of Examples 1˜6 was dissolved in patch base having the composition of Table 6 to be 1% concentration as for test materials, and 20 μl of each test materials was dropped into a Finn chamber respectively, then attached to the forearm of the subject and fixed with a micropore tape. After 24 hours of patching, the patches were removed and the test sites were marked with marking pen. The observations of the test sites were made after 24 and 48 hours from the patching.
The average response of Table 8 was calculated by the following equation 4. [formula]

[3] = test system: Human fibroblasts; experiment: Collagenase-inhibiting effect (collagenase expression, ELISA kit); type: cell-based; settings: 10^-4 M, 24 hours, relative to untreated control group = 100
Protocol: The collagenase-inhibiting effect of hydroxy pyranone derivatives obtained in Examples 1˜6 was compared with those of retinol and retinoic acid.
Human fibroblasts were cultured in Dulbecco's Modified Eagle's Medium (DMEM) supplemented with 2.5% fetal bovine serum. The fibroblasts were seeded into a 96-well microtiter plate to a density of 5,000 cells/well, and then cultured to 70˜80% of growth. The plate was treated with test samples at a concentration of 10^−4M for 24 hours, then the cultured medium and the cells were raked up and recovered. From the recovered culture, collagenase production was measured with collagenase kit (Catalog #: RPN 2610) commercialized by Amersham Pharmacia Biotech. First, the recovered culture was added into a 96-well plate wherein primary collagenase antibodies were uniformly spread, and then antigen-antibody reaction was performed in an incubator for 3 hours. Later, secondary collagenase antibodies bonded with chromophore were added to the 96-well plate and reacted for 15 minutes. Then, color former was added thereto in order to induce development at the room temperature for 15 minutes, and 1M of sulfuric acid was added to stop the reaction. The reaction solution became yellow, and the color density depends on the progress of the reaction. The absorbance of the yellow 96-well plate was measured at 405 nm with absorptiometer. The expression of collagenase was calculated by the following equation 1. No sample was treated in the control group.
[Equation 1] The expression of collagenase (%)=[(Absorbance of test group)/(Absorbance of control group)]×100
The expression of collagenase was evaluated as a relative value compared with that of the control group of which the expression of collagenase was set to be 100.

[4] = test system: rabbits; experiment: Primary skin irritation test on animals (Draize P.I.I.); type: in vivo; settings: 1% in 1,3-butylene glycol:ethanol=7:3, 0.5 ml, observed 24 and 72 hours later
Protocol: This test was performed for six (6) healthy male rabbits whose hairs on both sides of the backs were cut. The compounds of Examples 1˜6 were dissolved in 1,3-butylene glycol:ethanol=7:3, to obtain 1% concentration of test samples. 0.5 ml of each test samples were applied to right side area of 2.5 cm×2.5 cm. No sample was treated on left side as a control. 24 hours and 72 hours later, skin abnormality such as erythema, crust and edema was observed. Based on the score of skin response, skin irritation was estimated according to Draize's P.I.I. (Primary Irritation Index) and compared with that of retinoic acid.

[5] = test system: white guinea pigs; experiment: Phototoxicity test; type: in vivo; settings: 1% (w/v) solution, UVA 15 J/cm^2, observed at 24, 48 and 72 hours; for Phototoxic index: below 0.5 = no phototoxicity
Protocol: This test was performed for ten (10) white guinea pigs whose hairs on both sides of the backs were cut, and fixed. On the back of the guinea pig, six (6) test sites measuring 2.5 cm×2.5 cm, three (3) per each side, were sectioned. Right sites were prepared as controls with no irradiation (UV non-irradiation sites) and left sites were irradiated (UV irradiation sites). Vehicle (1,3-butylene glycol:ethanol=7:3) was used as a negative control, and 0.1% concentration of 8-MOP (methoxypsoralene) was used as a positive control; and 1% (w/v) solutions of the compounds of Examples 1˜6 were applied to either site with an amount of […] for each site. 30 minutes later, right sites were shielded with aluminum foil and UVA(320˜380 nm) was irradiated at a distance of about 10 cm therefrom with Waldmann to the final energy of 15 J/cm^2. After 24, 48 and 72 hours elapsed, skin response of guinea pig was observed. Erythema and edema were scored from 0 to 4 points as shown in the Table 3, and skin response was evaluated by summing the scores. Maximum scores were selected when measured on each elapsed time, i.e. 24, 48 and 72 hours, and irritation index was calculated according to the following equation 2. Then, phototoxic index was calculated according to the following equation 3.
[Equation 2] Irritation index=(Maximum of erythema+Maximum of edema)/Number of animals [Equation 3] Phototoxic index=(Irritation index of UV irradiation site)−(Irritation index of UV non-irradiation site)

O=C(Oc1cc(=O)c(O)co1)c1ccc2c(c1)OCCO2 [Compound of Ex. 2, (5-hydroxy-4-oxo-4H-pyran-2-yl) 2H,3H-benzo [3,4-e] 1,4-dioxane-6-carboxylate]
Biosynthesis of collagen (%) [1]: 121%
Average Response (n = 30) [2]: 0.42
Number of the subjected showing response, 24 hours later, − (No visible response) [2]: 30
Number of the subjected showing response, 24 hours later, ± (Mild erythema) [2]: 0
Number of the subjected showing response, 24 hours later, + (Intense erythema) [2]: 0
Number of the subjected showing response, 24 hours later, + + (Intense erythema with edema) [2]: 0
Number of the subjected showing response, 24 hours later, + + + (Intense erythema with edema and vesicle) [2]: 0
Number of the subjected showing response, 48 hours later, − (No visible response) [2]: 29
Number of the subjected showing response, 48 hours later, ± (Mild erythema) [2]: 1
Number of the subjected showing response, 48 hours later, + (Intense erythema) [2]: 0
Number of the subjected showing response, 48 hours later, + + (Intense erythema with edema) [2]: 0
Number of the subjected showing response, 48 hours later, + + + (Intense erythema with edema and vesicle) [2]: 0
Expression of collagenase (%) [3]: 81%
Evaluation (skin irritation) [4]: No irritation
P. I. I. (Primary Irritation Index) [4]: 0.345
Evaluation (phototoxicity) [5]: No phototoxicity
Phototoxic index [5]: 0

O=C(OCc1cc(=O)c(O)co1)c1ccc2c(c1)OCO2 [Compound of Ex. 1, (5-hydroxy-4-oxo-4H-pyran-2-yl)methyl 2H-benzo [3,4-d] 1,3-dioxolan-5-carboxylate]
Biosynthesis of collagen (%) [1]: 118%
Average Response (n = 30) [2]: 0.83
Number of the subjected showing response, 24 hours later, − (No visible response) [2]: 28
Number of the subjected showing response, 24 hours later, ± (Mild erythema) [2]: 2
Number of the subjected showing response, 24 hours later, + (Intense erythema) [2]: 0
Number of the subjected showing response, 24 hours later, + + (Intense erythema with edema) [2]: 0
Number of the subjected showing response, 24 hours later, + + + (Intense erythema with edema and vesicle) [2]: 0
Number of the subjected showing response, 48 hours later, − (No visible response) [2]: 30
Number of the subjected showing response, 48 hours later, ± (Mild erythema) [2]: 0
Number of the subjected showing response, 48 hours later, + (Intense erythema) [2]: 0
Number of the subjected showing response, 48 hours later, + + (Intense erythema with edema) [2]: 0
Number of the subjected showing response, 48 hours later, + + + (Intense erythema with edema and vesicle) [2]: 0
Expression of collagenase (%) [3]: 83%
Evaluation (skin irritation) [4]: No irritation
P. I. I. (Primary Irritation Index) [4]: 0.375
Evaluation (phototoxicity) [5]: No phototoxicity
Phototoxic index [5]: 0

O=c1cc(/C=C/c2ccc3c(c2)OCCO3)occ1O [Compound of Ex. 6, 2-((1E)-2-(2H,3H-benzo [3,4-e] 1,4-dioxan-6-yl)vinyl)-5-hydroxy-4H-pyran-4-one]
Biosynthesis of collagen (%) [1]: 115%
Average Response (n = 30) [2]: 0.00
Number of the subjected showing response, 24 hours later, − (No visible response) [2]: 30
Number of the subjected showing response, 24 hours later, ± (Mild erythema) [2]: 0
Number of the subjected showing response, 24 hours later, + (Intense erythema) [2]: 0
Number of the subjected showing response, 24 hours later, + + (Intense erythema with edema) [2]: 0
Number of the subjected showing response, 24 hours later, + + + (Intense erythema with edema and vesicle) [2]: 0
Number of the subjected showing response, 48 hours later, − (No visible response) [2]: 30
Number of the subjected showing response, 48 hours later, ± (Mild erythema) [2]: 0
Number of the subjected showing response, 48 hours later, + (Intense erythema) [2]: 0
Number of the subjected showing response, 48 hours later, + + (Intense erythema with edema) [2]: 0
Number of the subjected showing response, 48 hours later, + + + (Intense erythema with edema and vesicle) [2]: 0
Expression of collagenase (%) [3]: 84%
Evaluation (skin irritation) [4]: No irritation
P. I. I. (Primary Irritation Index) [4]: 0.315
Evaluation (phototoxicity) [5]: No phototoxicity
Phototoxic index [5]: 0

O=C(/C=C/c1ccc2c(c1)OCCO2)COc1cc(=O)c(O)co1 [Compound of Ex. 4, 2-((3E)-4-(2H,3H-benzo [3,4-e] 1,4-dioxan-6-yl)-2-oxobut-3-enyloxy)-5hydroxy-4-pyran-4-one]
Biosynthesis of collagen (%) [1]: 122%
Average Response (n = 30) [2]: 0.42
Number of the subjected showing response, 24 hours later, − (No visible response) [2]: 29
Number of the subjected showing response, 24 hours later, ± (Mild erythema) [2]: 1
Number of the subjected showing response, 24 hours later, + (Intense erythema) [2]: 0
Number of the subjected showing response, 24 hours later, + + (Intense erythema with edema) [2]: 0
Number of the subjected showing response, 24 hours later, + + + (Intense erythema with edema and vesicle) [2]: 0
Number of the subjected showing response, 48 hours later, − (No visible response) [2]: 30
Number of the subjected showing response, 48 hours later, ± (Mild erythema) [2]: 0
Number of the subjected showing response, 48 hours later, + (Intense erythema) [2]: 0
Number of the subjected showing response, 48 hours later, + + (Intense erythema with edema) [2]: 0
Number of the subjected showing response, 48 hours later, + + + (Intense erythema with edema and vesicle) [2]: 0
Expression of collagenase (%) [3]: 77%
Evaluation (skin irritation) [4]: No irritation
P. I. I. (Primary Irritation Index) [4]: 0.350
Evaluation (phototoxicity) [5]: No phototoxicity
Phototoxic index [5]: 0

CC1=C(/C=C/C(C)=C/C=C/C(C)=C/CO)C(C)(C)CCC1 [Retinol, reference compound]
Biosynthesis of collagen (%) [1]: 120%
Expression of collagenase (%) [3]: 82%

CC1=C(/C=C/C(C)=C/C=C/C(C)=C/C(=O)O)C(C)(C)CCC1 [Retinoic acid, reference compound]
Biosynthesis of collagen (%) [1]: 125%
Expression of collagenase (%) [3]: 75%
Evaluation (skin irritation) [4]: Light irritation
P. I. I. (Primary Irritation Index) [4]: 1.830
